pIC50: −log10 of the molar value.
Each molecule was assayed against Myc proto-oncogene protein (Homo sapiens, UniProt P01106) (assay: Inhibition of human c-Myc assessed as reduction in c-Myc/Max/Ebox DNA complex formation using pre-formed complex of c-Myc and biotinylated DNA containing single Ebox-sequence followed by compound addition and further addition of his6-tagged c-Max and incubated for 2 hrs by AlphaScreen assay). Details: not given.
Chain of Myc proto-oncogene protein (P01106 whole entry): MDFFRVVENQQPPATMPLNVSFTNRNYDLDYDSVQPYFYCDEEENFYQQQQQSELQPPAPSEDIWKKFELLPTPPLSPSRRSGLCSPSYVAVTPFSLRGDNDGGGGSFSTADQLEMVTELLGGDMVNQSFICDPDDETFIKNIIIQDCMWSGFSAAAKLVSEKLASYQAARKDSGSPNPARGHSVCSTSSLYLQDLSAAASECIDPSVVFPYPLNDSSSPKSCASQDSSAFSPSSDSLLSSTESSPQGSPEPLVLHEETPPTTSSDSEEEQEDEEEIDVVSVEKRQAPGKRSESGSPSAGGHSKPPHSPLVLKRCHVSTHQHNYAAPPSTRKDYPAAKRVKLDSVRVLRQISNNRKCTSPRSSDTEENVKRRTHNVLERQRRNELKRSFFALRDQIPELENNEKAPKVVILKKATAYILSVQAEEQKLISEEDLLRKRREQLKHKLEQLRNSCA

pIC50	SMILES
6.00 to 6.52	COCCNCCC(=O)Nc1sc2c(c1-c1nc3ccc(-c4ccnc(OC)c4)cc3s1)CCNC2
< 5.00	COCCNCCC(=O)Nc1sc2c(c1-c1nc3ccc(-c4ccncc4C)cc3s1)CCNC2
6.00 to 6.52	COCCNCCC(=O)Nc1sc2c(c1-c1nc3cc(-c4cnn(C)c4C)ccc3s1)CCNC2
6.00 to 6.52	COCCNCCC(=O)Nc1sc2c(c1-c1nc3ccc(-c4cnc(N)nc4)cc3s1)CCNC2
5.00 to 6.00	COCCNCCC(=O)Nc1sc2c(c1-c1nc3cc(-c4cccnc4C)ccc3s1)CCNC2
6.00 to 6.52	COCCNCCC(=O)Nc1sc2c(c1-c1nc3ccc(-c4ccc(C)nc4)cc3s1)CCNC2
6.00 to 6.52	COCCNCCC(=O)Nc1sc2c(c1-c1nc3ccc(-c4ccnc(C)c4)cc3s1)CCNC2
5.00 to 6.00	COCCNCCC(=O)Nc1sc2c(c1-c1nc3cc(-c4ccncc4C)ccc3s1)CCNC2
6.00 to 6.52	COCCNCCC(=O)Nc1sc2c(c1-c1nc3ccc(-c4ccnc(N)c4)cc3s1)CCNC2
6.00 to 6.52	COCCNCCC(=O)Nc1sc2c(c1-c1nc3ccc(-c4cnn(C)c4C)cc3s1)CCNC2
6.00 to 6.52	COCCNCCC(=O)Nc1sc2c(c1-c1nc3ccc(-c4cncc(N)c4)cc3s1)CCNC2
6.00 to 6.52	COCCNCCC(=O)Nc1sc2c(c1-c1nc3ccc(-c4c[nH]nc4C)cc3s1)CCNC2
6.00 to 6.52	COCCNCCC(=O)Nc1sc2c(c1-c1nc3ccc(-c4cncnc4)cc3s1)CCNC2
5.00 to 6.00	COCCNCCC(=O)Nc1sc2c(c1-c1nc3ccc(-c4cncc(C)c4)cc3s1)CCNC2
5.00 to 6.00	COCCNCCC(=O)Nc1sc2c(c1-c1nc3cc(-c4c(C)nn(C)c4C)ccc3s1)CCNC2
6.00 to 6.52	COCCNCCC(=O)Nc1sc2c(c1-c1nc3cc(-c4c[nH]nc4C)ccc3s1)CCNC2
6.00 to 6.52	COCCNCCC(=O)Nc1sc2c(c1-c1nc3ccc(-c4ccc(F)nc4)cc3s1)CCNC2
5.00 to 6.00	COCCNCCC(=O)Nc1sc2c(c1-c1nc3ccc(-c4ccnn4C)cc3s1)CCNC2

The remaining lines, values behind:

SMILES	pIC50
CNS(=O)(=O)c1cccc(-c2ccc3nc(-c4c(NC(=O)CCNCCOC)sc5c4CCNC5)sc3c2)c1	6.00 to 6.52
CNS(=O)(=O)c1cccc(-c2ccc3sc(-c4c(NC(=O)CCNCCOC)sc5c4CCNC5)nc3c2)c1	6.00 to 6.52
COCCNCCC(=O)Nc1sc2c(c1-c1nc3cc(-c4cncnc4)ccc3s1)CCNC2	> 6.52
COCCNCCC(=O)Nc1sc2c(c1-c1nc3ccc(-c4ccc(N5CCN(C)CC5)cc4)cc3s1)CCNC2	> 6.52
COCCNCCC(=O)Nc1sc2c(c1-c1nc3ccc(-c4cccc(C(=O)N(C)C)c4)cc3s1)CCNC2	6.00 to 6.52
COCCNCCC(=O)Nc1sc2c(c1-c1nc3ccc(-c4cccc(NS(C)(=O)=O)c4)cc3s1)CCNC2	6.00 to 6.52
COCCNCCC(=O)Nc1sc2c(c1-c1nc3cc(-c4cccc(S(N)(=O)=O)c4)ccc3s1)CCNC2	6.00 to 6.52
COCCNCCC(=O)Nc1sc2c(c1-c1nc3cc(-c4ccc(C(=O)N(C)C)cc4F)ccc3s1)CCNC2	6.00 to 6.52
COCCNCCC(=O)Nc1sc2c(c1-c1nc3cc(-c4ccnc(C)c4)ccc3s1)CCNC2	6.00 to 6.52
COCCNCCC(=O)Nc1sc2c(c1-c1nc3cc(-c4ccc(N5CCN(C)CC5)cc4)ccc3s1)CCNC2	6.00 to 6.52
COCCNCCC(=O)Nc1sc2c(c1-c1nc3ccc(-c4ccnc(NC(C)=O)c4)cc3s1)CCNC2	6.00 to 6.52
COCCNCCC(=O)Nc1sc2c(c1-c1nc3ccc(-c4ccc5nc(N)ncc5c4)cc3s1)CCNC2	< 5.00
COCCNCCC(=O)Nc1sc2c(c1-c1nc3cc(-c4ccnc(C(F)(F)F)c4)ccc3s1)CCNC2	6.00 to 6.52
CCOc1ncccc1-c1ccc2sc(-c3c(NC(=O)CCNCCOC)sc4c3CCNC4)nc2c1	5.00 to 6.00
COCCNCCC(=O)Nc1sc2c(c1-c1nc3cc(-c4cccc(NS(C)(=O)=O)c4)ccc3s1)CCNC2	5.00 to 6.00
COCCNCCC(=O)Nc1sc2c(c1-c1nc3cc(-c4ccc(F)nc4F)ccc3s1)CCNC2	6.00 to 6.52
COCCNCCC(=O)Nc1sc2c(c1-c1nc3ccc(-c4cncc(C(F)(F)F)c4)cc3s1)CCNC2	< 5.00
COCCNCCC(=O)Nc1sc2c(c1-c1nc3cc(-c4ccccc4NS(C)(=O)=O)ccc3s1)CCNC2	5.00 to 6.00

SMILES	pIC50
COCCNCCC(=O)Nc1sc2c(c1-c1nc3cc(-c4ccc(O)nc4)ccc3s1)CCNC2	> 6.52
COCCNCCC(=O)Nc1sc2c(c1-c1nc3cc(-c4ccc(N5CCOCC5)nc4)ccc3s1)CCNC2	6.00 to 6.52
COCCNCCC(=O)Nc1sc2c(c1-c1nc3cc(-c4ccc(F)nc4)ccc3s1)CCNC2	> 6.52
COCCNCCC(=O)Nc1sc2c(c1-c1nc3cc(-c4cccc(C#N)c4)ccc3s1)CCNC2	6.00 to 6.52
COCCNCCC(=O)Nc1sc2c(c1-c1nc3cc(-c4cnc(N)c(C(F)(F)F)c4)ccc3s1)CCNC2	5.00 to 6.00
COCCNCCC(=O)Nc1sc2c(c1-c1nc3cc(-c4cncc(OCCOC)c4)ccc3s1)CCNC2	6.00 to 6.52
COCCNCCC(=O)Nc1sc2c(c1-c1nc3cc(-c4cnc(N5CCOCC5)nc4)ccc3s1)CCNC2	6.00 to 6.52
COCCNCCC(=O)Nc1sc2c(c1-c1nc3cc(-c4ccc5ncnn5c4)ccc3s1)CCNC2	> 6.52
COCCNCCC(=O)Nc1sc2c(c1-c1nc3cc(-c4cncc(C)c4)ccc3s1)CCNC2	6.00 to 6.52
COCCNCCC(=O)Nc1sc2c(c1-c1nc3cc(-c4cnn(Cc5ccccc5)c4)ccc3s1)CCNC2	5.00 to 6.00
COCCNCCC(=O)Nc1sc2c(c1-c1nc3cc(-c4ccc(OC(C)C)nc4)ccc3s1)CCNC2	5.00 to 6.00
COCCNCCC(=O)Nc1sc2c(c1-c1nc3cc(-c4cncc(C(F)(F)F)c4)ccc3s1)CCNC2	6.00 to 6.52
COCCNCCC(=O)Nc1sc2c(c1-c1nc3ccc(-c4cccc(S(N)(=O)=O)c4)cc3s1)CCNC2	6.00 to 6.52
COCCNCCC(=O)Nc1sc2c(c1-c1nc3cc(-c4ccnc(OC)c4)ccc3s1)CCNC2	6.00 to 6.52
COCCNCCC(=O)Nc1sc2c(c1-c1nc3cc(-c4cc(C)[nH]n4)ccc3s1)CCNC2	6.00 to 6.52
CNC(=O)Nc1ccc(-c2ccc3nc(-c4c(NC(=O)CCNCCOC)sc5c4CCNC5)sc3c2)cc1	5.00 to 6.00
COCCNCCC(=O)Nc1sc2c(c1-c1nc3cc(-c4cccc(S(C)(=O)=O)c4)ccc3s1)CCNC2	6.00 to 6.52

Each molecule was assayed on NCI-H2171 (assay: Antiproliferative activity against human NCI-H2171 cells after 72 hrs by ATPlite assay). Details: NCI-H2171, 72 h.
Type: functional, cell-based

pIC50	SMILES
> 6.52	COCCNCCC(=O)Nc1sc2c(c1-c1nc3ccc(-c4ccnc(OC)c4)cc3s1)CCNC2
> 6.52	COCCNCCC(=O)Nc1sc2c(c1-c1nc3ccc(-c4ccncc4C)cc3s1)CCNC2
> 6.52	COCCNCCC(=O)Nc1sc2c(c1-c1nc3cc(-c4cnn(C)c4C)ccc3s1)CCNC2
> 6.52	COCCNCCC(=O)Nc1sc2c(c1-c1nc3ccc(-c4cnc(N)nc4)cc3s1)CCNC2
> 6.52	COCCNCCC(=O)Nc1sc2c(c1-c1nc3cc(-c4cccnc4C)ccc3s1)CCNC2
> 6.52	COCCNCCC(=O)Nc1sc2c(c1-c1nc3ccc(-c4ccc(C)nc4)cc3s1)CCNC2
> 6.52	COCCNCCC(=O)Nc1sc2c(c1-c1nc3ccc(-c4ccnc(C)c4)cc3s1)CCNC2
> 6.52	COCCNCCC(=O)Nc1sc2c(c1-c1nc3cc(-c4ccncc4C)ccc3s1)CCNC2
> 6.52	COCCNCCC(=O)Nc1sc2c(c1-c1nc3ccc(-c4ccnc(N)c4)cc3s1)CCNC2
> 6.52	COCCNCCC(=O)Nc1sc2c(c1-c1nc3ccc(-c4cnn(C)c4C)cc3s1)CCNC2
> 6.52	COCCNCCC(=O)Nc1sc2c(c1-c1nc3ccc(-c4cncc(N)c4)cc3s1)CCNC2
> 6.52	COCCNCCC(=O)Nc1sc2c(c1-c1nc3ccc(-c4c[nH]nc4C)cc3s1)CCNC2
> 6.52	COCCNCCC(=O)Nc1sc2c(c1-c1nc3ccc(-c4cncnc4)cc3s1)CCNC2
> 6.52	COCCNCCC(=O)Nc1sc2c(c1-c1nc3ccc(-c4cncc(C)c4)cc3s1)CCNC2
> 6.52	COCCNCCC(=O)Nc1sc2c(c1-c1nc3cc(-c4c(C)nn(C)c4C)ccc3s1)CCNC2
6.00 to 6.52	COCCNCCC(=O)Nc1sc2c(c1-c1nc3cc(-c4c[nH]nc4C)ccc3s1)CCNC2
> 6.52	COCCNCCC(=O)Nc1sc2c(c1-c1nc3ccc(-c4ccc(F)nc4)cc3s1)CCNC2
> 6.52	COCCNCCC(=O)Nc1sc2c(c1-c1nc3ccc(-c4ccnn4C)cc3s1)CCNC2

The next lines start with the molecule.

SMILES	pIC50
CNS(=O)(=O)c1cccc(-c2ccc3nc(-c4c(NC(=O)CCNCCOC)sc5c4CCNC5)sc3c2)c1	> 6.52
CNS(=O)(=O)c1cccc(-c2ccc3sc(-c4c(NC(=O)CCNCCOC)sc5c4CCNC5)nc3c2)c1	> 6.52
COCCNCCC(=O)Nc1sc2c(c1-c1nc3cc(-c4cncnc4)ccc3s1)CCNC2	6.00 to 6.52
COCCNCCC(=O)Nc1sc2c(c1-c1nc3ccc(-c4ccc(N5CCN(C)CC5)cc4)cc3s1)CCNC2	> 6.52
COCCNCCC(=O)Nc1sc2c(c1-c1nc3ccc(-c4cccc(C(=O)N(C)C)c4)cc3s1)CCNC2	> 6.52
COCCNCCC(=O)Nc1sc2c(c1-c1nc3ccc(-c4cccc(NS(C)(=O)=O)c4)cc3s1)CCNC2	> 6.52
COCCNCCC(=O)Nc1sc2c(c1-c1nc3cc(-c4cccc(S(N)(=O)=O)c4)ccc3s1)CCNC2	6.00 to 6.52
COCCNCCC(=O)Nc1sc2c(c1-c1nc3cc(-c4ccc(C(=O)N(C)C)cc4F)ccc3s1)CCNC2	> 6.52
COCCNCCC(=O)Nc1sc2c(c1-c1nc3cc(-c4ccnc(C)c4)ccc3s1)CCNC2	> 6.52
COCCNCCC(=O)Nc1sc2c(c1-c1nc3cc(-c4ccc(N5CCN(C)CC5)cc4)ccc3s1)CCNC2	> 6.52
COCCNCCC(=O)Nc1sc2c(c1-c1nc3ccc(-c4ccnc(NC(C)=O)c4)cc3s1)CCNC2	> 6.52
COCCNCCC(=O)Nc1sc2c(c1-c1nc3ccc(-c4ccc5nc(N)ncc5c4)cc3s1)CCNC2	> 6.52
COCCNCCC(=O)Nc1sc2c(c1-c1nc3cc(-c4ccnc(C(F)(F)F)c4)ccc3s1)CCNC2	> 6.52
CCOc1ncccc1-c1ccc2sc(-c3c(NC(=O)CCNCCOC)sc4c3CCNC4)nc2c1	6.00 to 6.52
COCCNCCC(=O)Nc1sc2c(c1-c1nc3cc(-c4cccc(NS(C)(=O)=O)c4)ccc3s1)CCNC2	> 6.52
COCCNCCC(=O)Nc1sc2c(c1-c1nc3cc(-c4ccc(F)nc4F)ccc3s1)CCNC2	> 6.52
COCCNCCC(=O)Nc1sc2c(c1-c1nc3ccc(-c4cncc(C(F)(F)F)c4)cc3s1)CCNC2	> 6.52
COCCNCCC(=O)Nc1sc2c(c1-c1nc3cc(-c4ccccc4NS(C)(=O)=O)ccc3s1)CCNC2	> 6.52

SMILES	pIC50
COCCNCCC(=O)Nc1sc2c(c1-c1nc3cc(-c4ccc(O)nc4)ccc3s1)CCNC2	6.00 to 6.52
COCCNCCC(=O)Nc1sc2c(c1-c1nc3cc(-c4ccc(N5CCOCC5)nc4)ccc3s1)CCNC2	6.00 to 6.52
COCCNCCC(=O)Nc1sc2c(c1-c1nc3cc(-c4ccc(F)nc4)ccc3s1)CCNC2	6.00 to 6.52
COCCNCCC(=O)Nc1sc2c(c1-c1nc3cc(-c4cccc(C#N)c4)ccc3s1)CCNC2	> 6.52
COCCNCCC(=O)Nc1sc2c(c1-c1nc3cc(-c4cnc(N)c(C(F)(F)F)c4)ccc3s1)CCNC2	> 6.52
COCCNCCC(=O)Nc1sc2c(c1-c1nc3cc(-c4cncc(OCCOC)c4)ccc3s1)CCNC2	> 6.52
COCCNCCC(=O)Nc1sc2c(c1-c1nc3cc(-c4cnc(N5CCOCC5)nc4)ccc3s1)CCNC2	> 6.52
COCCNCCC(=O)Nc1sc2c(c1-c1nc3cc(-c4ccc5ncnn5c4)ccc3s1)CCNC2	> 6.52
COCCNCCC(=O)Nc1sc2c(c1-c1nc3cc(-c4cncc(C)c4)ccc3s1)CCNC2	> 6.52
COCCNCCC(=O)Nc1sc2c(c1-c1nc3cc(-c4cnn(Cc5ccccc5)c4)ccc3s1)CCNC2	> 6.52
COCCNCCC(=O)Nc1sc2c(c1-c1nc3cc(-c4ccc(OC(C)C)nc4)ccc3s1)CCNC2	> 6.52
COCCNCCC(=O)Nc1sc2c(c1-c1nc3cc(-c4cncc(C(F)(F)F)c4)ccc3s1)CCNC2	> 6.52
COCCNCCC(=O)Nc1sc2c(c1-c1nc3ccc(-c4cccc(S(N)(=O)=O)c4)cc3s1)CCNC2	> 6.52
COCCNCCC(=O)Nc1sc2c(c1-c1nc3cc(-c4ccnc(OC)c4)ccc3s1)CCNC2	> 6.52
COCCNCCC(=O)Nc1sc2c(c1-c1nc3cc(-c4cc(C)[nH]n4)ccc3s1)CCNC2	> 6.52
CNC(=O)Nc1ccc(-c2ccc3nc(-c4c(NC(=O)CCNCCOC)sc5c4CCNC5)sc3c2)cc1	> 6.52
COCCNCCC(=O)Nc1sc2c(c1-c1nc3cc(-c4cccc(S(C)(=O)=O)c4)ccc3s1)CCNC2	> 6.52

Source: ChEMBL document CHEMBL4476874, “Compounds for the modulation of myc activity” (2018)
